Data taken from patent EP4759807A1, “PROTEOLYSIS TARGETING CHIMERA COMPOUND FOR DEGRADING IRAK4 AND USE THEREOF” (Shenzhen Zhongge Biological Technology Co., Ltd., priority 2023, dated 2025).
Where two headings read alike, the source gives them in different places.

Assays:
hERG ion channel = target: T1, hERG ion channel (Homo sapiens, UniProt Q12809); assay: Inhibitory effect on hERG ion channels (manual patch clamp); format: cell-based; conditions: HEK293 cells stably expressing hERG channels, read-out: hERG (IC50, manupatch)
T1 construct: host or cells: HEK293
T1 sequence (Q12809 whole entry): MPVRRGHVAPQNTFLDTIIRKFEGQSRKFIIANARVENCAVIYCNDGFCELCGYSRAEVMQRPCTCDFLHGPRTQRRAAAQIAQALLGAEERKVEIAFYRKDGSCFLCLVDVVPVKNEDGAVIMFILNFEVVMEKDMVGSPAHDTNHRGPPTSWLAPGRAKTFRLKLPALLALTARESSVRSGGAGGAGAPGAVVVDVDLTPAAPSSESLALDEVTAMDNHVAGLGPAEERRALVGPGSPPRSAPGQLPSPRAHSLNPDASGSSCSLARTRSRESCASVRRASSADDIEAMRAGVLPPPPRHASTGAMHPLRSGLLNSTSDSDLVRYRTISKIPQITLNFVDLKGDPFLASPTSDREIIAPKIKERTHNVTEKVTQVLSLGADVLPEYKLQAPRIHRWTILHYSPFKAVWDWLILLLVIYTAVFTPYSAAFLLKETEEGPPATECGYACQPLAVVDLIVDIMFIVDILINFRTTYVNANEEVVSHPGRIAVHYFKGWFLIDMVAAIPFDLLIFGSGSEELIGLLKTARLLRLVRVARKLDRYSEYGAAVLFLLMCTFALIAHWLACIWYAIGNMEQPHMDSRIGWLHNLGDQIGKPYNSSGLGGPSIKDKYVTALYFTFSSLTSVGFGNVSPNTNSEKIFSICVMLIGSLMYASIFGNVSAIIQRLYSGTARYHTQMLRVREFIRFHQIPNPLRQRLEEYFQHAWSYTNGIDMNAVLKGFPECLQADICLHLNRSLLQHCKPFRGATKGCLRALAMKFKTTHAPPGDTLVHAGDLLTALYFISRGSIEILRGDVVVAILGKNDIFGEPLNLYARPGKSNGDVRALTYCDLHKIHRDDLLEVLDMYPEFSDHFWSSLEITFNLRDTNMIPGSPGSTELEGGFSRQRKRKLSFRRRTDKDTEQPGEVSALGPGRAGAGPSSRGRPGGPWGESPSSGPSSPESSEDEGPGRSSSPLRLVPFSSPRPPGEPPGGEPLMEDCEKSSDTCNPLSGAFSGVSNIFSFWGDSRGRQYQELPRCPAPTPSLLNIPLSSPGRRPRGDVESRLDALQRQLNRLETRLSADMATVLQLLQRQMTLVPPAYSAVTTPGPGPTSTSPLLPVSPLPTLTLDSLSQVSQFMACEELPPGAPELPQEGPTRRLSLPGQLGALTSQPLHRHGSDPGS
Protocol: In this experiment, the inhibitory effect of the compound on the hERG ion channel was detected by a manual patch clamp electrophysiological method, and the cardiac safety was evaluated based on the single concentration inhibition rate or IC50 of the compound.
The cells used in this experiment were HEK293 cell lines transfected with hERG cDNA and stably expressing hERG channels (#60187, provided by BPS, P3-P23 generations were used for experimental research). The cells was cultured in a medium containing the following components: MEM medium, 10% (v/v) inactivated fetal bovine serum, 1 mM sodium pyruvate, 500 µg geneticin, 0.1 mM non-essential amino acids, 100 U penicillin-streptomycin. HEK293 hERG cells were grown in a culture flask containing the above culture solution and cultured in an incubator at 37°C and 5% CO2. […]
A manual patch clamp system (HEKA EPC-10 signal amplifier and digital conversion system, purchased from HEKA Electronics, Germany) was used to record whole-cell currents in electrophysiological experiments. […] After the hERG current recorded in the above steps reached stabilization under the continuous perfusion of extracellular solution in the recording chamber, different concentrations of the compound to be tested could be perfused until the inhibitory effect of the drug on the hERG current reached a stable state. […]

CYP2C9 = target: T2, CYP2C9 (Homo sapiens, UniProt P11712); assay: Inhibitory effect on human liver microsome CYP450 enzyme; format: in vitro ADME; conditions: human liver microsomes, substrate Diclofenac Sodium
T2 construct: 0.05 mg/mL liver microsomes (BioIVT, IHG) phosphate buffer solution; tissue BioIVT IHG; host or cells: human liver microsomes
T2 sequence (P11712 whole entry): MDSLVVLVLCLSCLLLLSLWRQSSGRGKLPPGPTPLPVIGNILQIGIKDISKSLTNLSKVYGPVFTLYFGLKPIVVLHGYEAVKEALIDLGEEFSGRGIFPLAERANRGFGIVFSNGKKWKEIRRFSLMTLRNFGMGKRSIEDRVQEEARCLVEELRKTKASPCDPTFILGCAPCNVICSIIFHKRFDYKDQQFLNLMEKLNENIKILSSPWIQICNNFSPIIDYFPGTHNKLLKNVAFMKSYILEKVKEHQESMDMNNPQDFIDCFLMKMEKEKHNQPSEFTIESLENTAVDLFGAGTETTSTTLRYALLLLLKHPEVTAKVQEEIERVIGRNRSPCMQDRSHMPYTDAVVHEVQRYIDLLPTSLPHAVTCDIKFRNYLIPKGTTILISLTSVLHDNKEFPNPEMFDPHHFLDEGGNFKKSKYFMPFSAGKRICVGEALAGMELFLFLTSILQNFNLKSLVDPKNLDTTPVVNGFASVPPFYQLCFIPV
Protocol: (§1) In this experiment, the compound, liver microsomes and different CYP isoform enzyme substrates were incubated in a 37°C water bath, the amount of substrate metabolites generated was measured, and the inhibitory effect of the compound of the present disclosure on CYP enzyme was evaluated based on the IC50 value.
(§2) i. The compound was diluted with DMSO (Aladdin, catalog number: D103273-500ml) to concentrations of 0, 0.02, 0.06, 0.2, 0.6, 2 and 6 mM. The positive reference inhibitors for each CYP isoform and their concentrations are shown in Table 4 Table 4 Positive reference inhibitors for CYP isoform enzymes and their concentrations
(§3) ii. Phosphate buffer (sigma: V900050-500G) was used to formulate the substrate solution for each CYP isoform enzyme. Table 5 The substrate and the concentration thereof for CYP isoform enzyme
(§4) iii. Sample incubation. 1 µL of each concentration of the compound and positive reference inhibitor for CYP isoform enzyme were taken and placed into a 96-deep well plate (A-gen: P-1.0-RD-96-S), and 169 µL of 0.05 mg/mL liver microsomes (BioIVT, IHG) phosphate buffer solution (using 0.2 mg/mL liver microsomes for CYP2C19) was added. After uniform mixing, the plate was placed in a 37°C water bath (Shanghai Jinghong Experimental Equipment Co., Ltd., DK-500) with shaking for pre-incubation for 15 min. 10 µL of substrate (adding 1 µL of substrate for CYP3A4-Testosterone) and 20 µL of 10 mM NADPH phosphate buffer solution (MCE, HYF003/CS-4998) were added. After uniform mixing, the plate was incubated in a water bath with shaking for the following time: CYP1A2: 20 min, CYP2C9: 10 min, CYP2C19: 10 min, CYP2D6: 10 min, CYP3A4-Testosterone: 10 min, CYP3A4-Midazolam: 5 min. 400 µL of glacial acetonitrile/methanol (v/v, 1:1) containing an internal standard (500 nM tolbutamide, 5 nM terfenadine) was added to terminate the reaction. After centrifugation at 4000 rpm at 4°C for 40 min, the supernatant was taken and diluted with pure water according to the response of the metabolite of the substrate, and then UPLC-MS/MS (Sciex, Q-Trap 4500) was used for detection to obtain the peak area. The C18 chromatographic column was Kinetex 2.6u C18 100A (50 mm*3 mm).
(§5) The inhibitory effect of the compound on each P450 enzyme in human liver microsomes was calculated as the percentage of reduced metabolite formation compared with the non-inhibitory control (i.e. blank DMSO). The IC50 value of the compound for each P450 enzyme in human liver microsomes was calculated with the logarithm of the remaining activity and the inhibitor concentration using Graphpad Prism software. The calculation equation was as follows: Peak area ratio = compound peak area / internal standard peak area [formula] [formula]
(§6) In Graphpad Prism software, the IC50 value was calculated using the standard four-parameter curve fitting algorithm.

CYP3A4 = target: T3, CYP3A4 (Homo sapiens, UniProt P08684); assay: as above; format: in vitro ADME; conditions: liver microsomes
T3 construct: 0.05 mg/mL liver microsomes (BioIVT, IHG) phosphate buffer solution; tissue BioIVT IHG; host or cells: human liver microsomes
T3 sequence (P08684 whole entry): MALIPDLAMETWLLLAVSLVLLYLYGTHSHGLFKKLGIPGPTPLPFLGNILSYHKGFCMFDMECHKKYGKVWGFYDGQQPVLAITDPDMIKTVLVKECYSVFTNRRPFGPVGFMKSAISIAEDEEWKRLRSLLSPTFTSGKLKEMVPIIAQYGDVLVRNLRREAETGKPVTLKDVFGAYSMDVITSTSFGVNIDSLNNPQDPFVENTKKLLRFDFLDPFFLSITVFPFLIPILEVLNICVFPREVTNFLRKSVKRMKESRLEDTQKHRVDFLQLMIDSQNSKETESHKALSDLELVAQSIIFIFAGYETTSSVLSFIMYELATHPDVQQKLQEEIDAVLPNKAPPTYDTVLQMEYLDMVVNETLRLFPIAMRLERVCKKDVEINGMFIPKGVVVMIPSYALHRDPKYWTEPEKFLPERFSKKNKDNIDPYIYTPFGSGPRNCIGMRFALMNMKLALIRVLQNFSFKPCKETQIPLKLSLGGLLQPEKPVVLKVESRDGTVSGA
Protocol: as §1, §2, §3, §4, §5, §6

CYP2D6 = target: T4, CYP2D6 (Homo sapiens, UniProt P10635); assay: as above; format: in vitro ADME; conditions: human liver microsomes, substrate Dextromethorphan
T4 construct: 0.05 mg/mL liver microsomes (BioIVT, IHG) phosphate buffer solution; tissue BioIVT IHG; host or cells: human liver microsomes
T4 sequence (P10635 whole entry): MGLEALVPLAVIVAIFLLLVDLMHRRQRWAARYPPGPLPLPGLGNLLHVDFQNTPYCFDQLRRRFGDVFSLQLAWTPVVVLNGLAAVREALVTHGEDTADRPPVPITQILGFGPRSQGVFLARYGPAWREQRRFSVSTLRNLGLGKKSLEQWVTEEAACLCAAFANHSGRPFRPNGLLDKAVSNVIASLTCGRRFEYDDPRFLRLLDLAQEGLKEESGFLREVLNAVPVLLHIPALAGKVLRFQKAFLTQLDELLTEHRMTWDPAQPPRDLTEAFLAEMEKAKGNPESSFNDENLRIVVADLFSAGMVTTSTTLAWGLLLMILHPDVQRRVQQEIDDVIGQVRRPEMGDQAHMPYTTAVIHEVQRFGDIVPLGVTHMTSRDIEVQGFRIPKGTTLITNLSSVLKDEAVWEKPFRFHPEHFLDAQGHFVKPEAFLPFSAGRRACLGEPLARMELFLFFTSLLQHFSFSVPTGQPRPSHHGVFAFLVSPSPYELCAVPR
Protocol: as §1, §2, §3, §4, §5, §6

CYP2C19 = target: T5, CYP2C19 (Homo sapiens, UniProt P33261); assay: as above; format: in vitro ADME; conditions: human liver microsomes, substrate Mephenytoin
T5 construct: (using 0.2 mg/mL liver microsomes for CYP2C19); tissue BioIVT IHG; host or cells: human liver microsomes
T5 sequence (P33261 whole entry): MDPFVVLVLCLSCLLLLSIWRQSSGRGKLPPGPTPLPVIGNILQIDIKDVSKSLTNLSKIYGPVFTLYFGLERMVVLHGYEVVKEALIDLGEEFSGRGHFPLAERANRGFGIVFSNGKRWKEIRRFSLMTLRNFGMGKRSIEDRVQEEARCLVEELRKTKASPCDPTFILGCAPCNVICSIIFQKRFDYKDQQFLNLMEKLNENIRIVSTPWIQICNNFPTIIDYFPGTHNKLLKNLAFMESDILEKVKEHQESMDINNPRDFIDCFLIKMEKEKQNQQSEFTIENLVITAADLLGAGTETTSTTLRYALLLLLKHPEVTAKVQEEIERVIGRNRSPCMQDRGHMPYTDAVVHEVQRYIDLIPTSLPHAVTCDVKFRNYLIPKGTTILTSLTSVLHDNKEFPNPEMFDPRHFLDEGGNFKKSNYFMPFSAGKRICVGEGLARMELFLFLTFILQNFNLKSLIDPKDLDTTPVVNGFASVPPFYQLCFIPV
Protocol: as §1, §2, §3, §4, §5, §6

CYP1A2 = target: T6, CYP1A2 (Homo sapiens, UniProt P05177); assay: as above; format: in vitro ADME; conditions: human liver microsomes, substrate Phenacetin
T6 construct: 0.05 mg/mL liver microsomes (BioIVT, IHG) phosphate buffer solution; tissue BioIVT IHG; host or cells: human liver microsomes
T6 sequence (P05177 1-516): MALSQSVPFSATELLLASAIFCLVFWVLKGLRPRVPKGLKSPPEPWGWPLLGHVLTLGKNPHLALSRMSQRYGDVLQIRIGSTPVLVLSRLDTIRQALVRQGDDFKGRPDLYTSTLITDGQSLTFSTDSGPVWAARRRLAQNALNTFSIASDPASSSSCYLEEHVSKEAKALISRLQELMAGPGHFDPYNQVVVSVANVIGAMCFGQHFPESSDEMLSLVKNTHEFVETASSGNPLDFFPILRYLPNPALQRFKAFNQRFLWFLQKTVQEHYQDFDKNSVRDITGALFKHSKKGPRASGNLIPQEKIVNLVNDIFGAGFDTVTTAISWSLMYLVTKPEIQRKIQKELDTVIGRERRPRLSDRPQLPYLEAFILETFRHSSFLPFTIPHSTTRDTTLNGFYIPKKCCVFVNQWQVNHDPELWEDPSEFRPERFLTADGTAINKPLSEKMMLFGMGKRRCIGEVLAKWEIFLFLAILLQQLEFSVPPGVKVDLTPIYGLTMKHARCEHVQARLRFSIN
Protocol: as §1, §2, §3, §4, §5, §6

`Cn1c(=O)n(C2CCC(=O)NC2=O)c2cccc(C#CCOC3CCN(C[C@H]4CC[C@H](n5cc(NC(=O)c6cnn7ccc(N8C[C@H]9C[C@@H]8CO9)nc67)c(C(F)F)n5)CC4)CC3)c21` (stereo partly shown) [KT474, reference compound] gave an IC50 (hERG ion channel) of 2.65 µM, an IC50 (CYP2C9) of 9.61 µM and an IC50 (CYP3A4; substrate Midazolam, read-out: IC50 (µM) CYP3A4-M) of 15.1 µM. The IC50 (CYP3A4; substrate Testosterone, read-out: IC50 (µM) CYP3A4-T) was greater than 30 µM, the IC50 (CYP2D6) was greater than 30 µM and the IC50 (CYP2C19) was 3.81 µM. It also gave an IC50 (CYP1A2) greater than 30 µM.
